In patent US9394547B2, “Method and apparatus for delivery of molecules to cells” (CITY UNIVERSITY OF HONG KONG, priority 2012, dated 2016):
Structures can show the parent of a compound that is named as a salt.

Tests used:
MC-3T3 cells = experiment: Flow cytometry of fluorescein intracellular delivery with diamond nanocone array; assay type: cell-based, Mouse; details: fluorescein 1 mg/ml
Method: Mouse MC3T3-E1 pre-osteoblasts, which can differentiate into osteoblasts, were used in the present study. The cells were cultured at 37° C. with 5% carbon dioxide (CO2) and 95% humidified air in Dulbecco's Modified Eagle Medium (DMEM) (Gibco) supplemented with 10% fetal bovine serum (FBS) (Gibco). The medium was renewed every 2-3 days and confluent cells were subcultured through trypsinization.
Three groups of cells were studied. One group was untreated cells. Other two groups included the cells which were treated by smooth silicon substrate and diamond nanocone array. For treatment, a volume of […] MC-3T3 cell suspension was applied to the substrate with a speed of about 3 ms^−1 by a pipette (FIG. 16). After the application, the cell suspension was collected and pipetted to the substrate again with a similar speed. Such cell treatment procedure was repeated for 15 times. The same procedures were used in all experiments for enhanced intracellular delivery. Following cell treatment, cells were plated into 96-well microtiter plates. After 22 hours, morphology of each group of cells was observed by optical microscopy. After 24 hours, cell viability was determined by MTT assay.
Subsequently, the enhanced intracellular delivery capability of the diamond nanocone array was firstly assessed by investigating the fluorescence intensity of fluorescein sodium salt stain in treated cells by quantitative analysis through flow cytometry. MC-3T3 cells were harvested at a density of 10^4 cells/ml. Fluorescien was added to cell growth medium at a concentration of 1 mg/ml. After the addition of fluorescein, a volume of 1 ml of this cell suspension was treated with the same method as that described above. Two experiments were arranged in investigating the intracellular delivery of fluorescein sodium salt. In one experiment, the negative control was to apply cells to a smooth silicon substrate without the nanocone array. In the other experiment, untreated cells were used as the control (i.e. neither nanocone array nor smooth Si substrate was used). After 15 min of staining, the suspensions of control and treated group cells were pelleted by centrifugation (Spectrafuge™ 16 M, Labnet) at 6000 rpm for 3 min, after which the supernatants were removed. The cell pellets were washed by 1 mL of phosphate buffered saline (PBS) and then resuspended throughly. The cell suspensions were centrifuged again at 6000 rpm for 3 min, and the cell pelletes were washed by PBS for 3 times in total. Finally, the cell suspensions were prepared with a concentration of 10^4 cells in PBS and then immediately analysed using a flow cytometer (Becton DICKINSON, FACSCalibur cytometer) by counting 1×10^4 cells per sample. […]

A549 cells = experiment: Live-cell confocal imaging of luminescent iridium(III) complex delivery; assay type: cell-based
Method: In this embodiment, suspension with the subjects was applied to the nanoneedle array at a speed of about 3.0 m/s. After treatment with the nanooneedles, the cells were grown on a sterile glass coverslip for 19 hours followed by PBS washing and then investigated by fluorescence confocal microscopy. Negligible cell death was found under microscopy in the experiments. FIG. 12a is a representative image showing the intracellular delivery of the iridium(III) polypyridine complex to A549 cells. […] In comparison, FIG. 12b is the image of the control group in which the cells were incubated with the complex for 19 hours but not treated with nanoneedles before incubation. FIGS. 12a and 12b were taken under the same microscope settings. […] (The arrows in the figures indicate the cells in which direct nucleic delivery of the luminescent complex is achieved with diamond needles treatment. The scale bars in FIGS. 12a), b), e) and f) indicate 25 μm).
The fluorescence intensities in the cytoplasm of the two selected cells were normalized to be the same value and the fluorescence intensities in the nucleus of the two cells were compared. The representative results are shown in FIG. 12c for a nanoneedle-treated cell and FIG. 12d for a cell without treatment. […] For the nanoneedle treated group, unexpectedly, a number of cells in which the fluorescence signal was almost evenly distributed in the entire cells were found. For this reason, it was not apparent to locate their nuclei (indicated by the arrows in FIGS. 12e and 12f).
A549 cells were maintained as exponentially growing cultures in a Dulbecco's modified Eagle's medium (DMEM) with 10% FBS and 1% penicillin/streptomycin at 37° C. The cells were trypsinized and suspended in DMEM medium. There are about 6×10^4 cells in one milliliter. Iridium(III) polypyridine complex was added to the cell medium at a concentration of 0.1 μM. […]
A549 cell suspension in medium/DMSO (99:1, v/v) containing [Ir(ppy)2(bpy-Et)](PF6) (0.1 μM) was prepared. […] The emission was measured using a long-pass filter at 532 nm.

NIH3T3 fibroblast cells = experiment: Cytosolic delivery into fibroblast cells by diamond nanoneedle array under centrifugation (live/dead calcein AM/EthD-1 staining); assay type: cell-based
Excerpt: This kit has been widely used to characterize cell viability and cytotoxicity. In the assays, with application of nanoneedle array to cells, the membrane-permeant calcein AM enters cells and is cleaved by esterases in live cells to yield cytoplasmic green fluorescence; while the membrane-impermeant ethidium homodimer-1 (EthD-1) labels nucleic acids of membrane-disrupted cells with red fluorescence. […] In comparison, dead cells were labeled with only red fluorescence (FIG. 5). FIG. 5a are representative images of fibroblast cells after successful cytosolic delivery of EthD-1; FIG. 5b is a chart showing quantification of delivery efficiency; and FIG. 5c is a chart showing quantification of cell viability after being treated with nanoneedles arrays; all at a scale bar of 100 um.
In an embodiment, the penetration and subsequent disruption of cell membrane by nanoneedles was precisely controlled by centrifugation-induced supergravity to achieve reliable, highly efficient, diffusion based cytosolic delivery. In a specific embodiment, in order to optimize the force applied onto the cell membranes through nanoneedles, the whole setup (cell culture plus nanoneedle array) was maintained in supergravity by centrifugation at a series of speeds from 300 rpm (12.8 g, RCF) to 1000 rpm (142 g). […]

[1] = test system: primary hippocampal neurons; experiment: Cytosolic delivery into primary hippocampal neurons by diamond nanoneedle array under centrifugation (live/dead staining); assay type: cell-based; details: around 300 rpm (12.8 g)
Method: Intracellular delivery into post-mitotic cells, such as neuron, has always been challenging. […] Compared with fibroblast cells, neurons are more vulnerable to membrane disruption induced by nanoneedle arrays. Generally, a relatively lower speed would be required to achieve similar delivery efficiency as in fibroblast cells (FIG. 6). […] Therefore, a centrifuging speed of 300-400 rpm was selected for following experiments with primary neurons. FIG. 6a are representative images of fibroblast cells after successful cytosolic delivery of EthD-1; FIG. 6b is a chart showing quantification of delivery efficiency; and FIG. 6c is a chart showing quantification of cell viability after being treated with nanoneedles arrays; all at a scale bar of 100 um.
Hippocampal neuron cultures were prepared following the method previously described. Briefly, dissociated neurons were prepared from hippocampi dissected from E18 Sprague Dawley rats by enzymatic treatment with papain (Sigma) for 30 min at 37° C. followed by trituration with a 1 ml pipette tip. Before seeding neurons, all substrates were pre-coated with polylysine (Sigma, 100 μg ml^−1) and laminin (Invitrogen, 10 μg ml^−1). Neuron cells were treated with nanoneedle arrays at 6-7 days in vitro (DIV).
Nanoneedle array was placed to float on culture medium with the needles facing toward cells. […]

Compound: O=C1OC2(c3ccc(O)cc3Oc3cc(O)ccc32)c2ccccc21 [fluorescein sodium salt]
- M3, percentage of cells with fluorescence intensity 1×10^2 to 1×10^3 (MC-3T3 cells; FIG. 20, cells treated with the nanocone array): 73.5%
- M2, percentage of cells with fluorescence intensity 1×10^1 to 1×10^2 (MC-3T3 cells; FIG. 20, control cells applied to smooth Si substrate): 63.1%
- M3, percentage of cells with fluorescence intensity 1×10^2 to 1×10^3 (MC-3T3 cells; FIG. 21, cells treated with the nanocone array): 62.4%
- M2, percentage of cells with fluorescence intensity 1×10^1 to 1×10^2 (MC-3T3 cells; FIG. 21, untreated sample (no nanocone, no Si substrate)): 70.0%

Compound: [Ir(ppy)2(bpy-Et)](PF6) [iridium(III) polypyridine complex]
- fluorescence signal (A549 cells; A549 cells, 0.1 μM, 19-hour incubation, not treated with nanoneedles): extremely weak
- intracellular localization (A549 cells; A549 cells, 0.1 μM, nanoneedle treated, 19 hours): mainly localized in the perinuclear region
- nuclear uptake (A549 cells; by diffusion, without nanoneedles): negligible nuclear uptake

Compound: ethidium homodimer-1 [EthD-1]
- cytosolic delivery efficiency of EthD-1 (NIH3T3 fibroblast cells; centrifugation 300 rpm): ~5%
- cytosolic delivery efficiency of EthD-1 (NIH3T3 fibroblast cells; centrifugation 500 rpm or above): ~80%
- delivery efficiency of EthD-1 [1]: about 80%
